Data published in PMC4503722, “Novel Phenotypic Outcomes Identified for a Public Collection of Approved Drugs from a Publicly Accessible Panel of Assays” (PLoS ONE, 2015).
Like-named read-outs stand apart in the source and are kept apart here.

Columns and labels:
[1] = test system: endothelial tube formation in co-cultures of ECFCs and ADSCs treated with VEGF; test: cells; format: cell-based, human
[2] = test system: nuclear β-catenin in C2C12 cells; test: cells; format: cell-based; details: Mus musculus, C2C12, read-out: Wnt Pathway
INS-1E cells = test: cells; format: cell-based, rat; details: Rattus norvegicus, INS-1E, read-out: Insulin Secretion
NCI-H716 cells = test: cells; format: cell-based, Human; details: Homo sapiens, NCI-H716, read-out: GLP 1 Secretion
HeLa cells = test: cells; format: cell-based;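 on Hela CellCycMod PI 4N summarized IC50: value tracks stimulation of 4N DNA content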
DLD-1 = test: cells; format: cell-based
HCT116 = test: cells; format: cell-based
[3] = test system: HCT116 cells treated with a GSK3β inhibitor; test: cells; format: cell-based
Colo320 = test: cells; format: cell-based
hp70S6K1 (RPS6KB1) = molecular target: T1, hp70S6K1 (RPS6KB1) (Homo sapiens, UniProt P23443); test: Cerep LANCE kinase assay hp70S6K1 (S1 assay 31); format: biochemical
T1 construct: purchased Cerep (LANCE kinase assay platform, contract assay)
T1 sequence (P23443 whole entry): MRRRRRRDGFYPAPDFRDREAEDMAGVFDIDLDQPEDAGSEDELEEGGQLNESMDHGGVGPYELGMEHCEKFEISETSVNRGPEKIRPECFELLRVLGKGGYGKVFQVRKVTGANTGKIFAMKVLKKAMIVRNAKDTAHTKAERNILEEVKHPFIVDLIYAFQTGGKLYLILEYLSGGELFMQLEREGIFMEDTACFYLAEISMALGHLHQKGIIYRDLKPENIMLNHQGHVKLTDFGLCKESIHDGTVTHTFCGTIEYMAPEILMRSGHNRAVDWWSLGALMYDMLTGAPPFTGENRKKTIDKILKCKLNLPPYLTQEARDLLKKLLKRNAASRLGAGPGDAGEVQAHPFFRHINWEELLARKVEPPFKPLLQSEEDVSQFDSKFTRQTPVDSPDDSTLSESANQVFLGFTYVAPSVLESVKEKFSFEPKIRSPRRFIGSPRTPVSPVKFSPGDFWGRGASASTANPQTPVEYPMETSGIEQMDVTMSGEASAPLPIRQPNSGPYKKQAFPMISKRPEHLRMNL

hKDR = molecular target: T2, hKDR (Homo sapiens, UniProt P35968); test: Cerep LANCE kinase assay hKDR (S1 assay 32); format: biochemical
T2 construct: purchased Cerep (LANCE kinase assay platform, contract assay)
T2 sequence (P35968 20-1356): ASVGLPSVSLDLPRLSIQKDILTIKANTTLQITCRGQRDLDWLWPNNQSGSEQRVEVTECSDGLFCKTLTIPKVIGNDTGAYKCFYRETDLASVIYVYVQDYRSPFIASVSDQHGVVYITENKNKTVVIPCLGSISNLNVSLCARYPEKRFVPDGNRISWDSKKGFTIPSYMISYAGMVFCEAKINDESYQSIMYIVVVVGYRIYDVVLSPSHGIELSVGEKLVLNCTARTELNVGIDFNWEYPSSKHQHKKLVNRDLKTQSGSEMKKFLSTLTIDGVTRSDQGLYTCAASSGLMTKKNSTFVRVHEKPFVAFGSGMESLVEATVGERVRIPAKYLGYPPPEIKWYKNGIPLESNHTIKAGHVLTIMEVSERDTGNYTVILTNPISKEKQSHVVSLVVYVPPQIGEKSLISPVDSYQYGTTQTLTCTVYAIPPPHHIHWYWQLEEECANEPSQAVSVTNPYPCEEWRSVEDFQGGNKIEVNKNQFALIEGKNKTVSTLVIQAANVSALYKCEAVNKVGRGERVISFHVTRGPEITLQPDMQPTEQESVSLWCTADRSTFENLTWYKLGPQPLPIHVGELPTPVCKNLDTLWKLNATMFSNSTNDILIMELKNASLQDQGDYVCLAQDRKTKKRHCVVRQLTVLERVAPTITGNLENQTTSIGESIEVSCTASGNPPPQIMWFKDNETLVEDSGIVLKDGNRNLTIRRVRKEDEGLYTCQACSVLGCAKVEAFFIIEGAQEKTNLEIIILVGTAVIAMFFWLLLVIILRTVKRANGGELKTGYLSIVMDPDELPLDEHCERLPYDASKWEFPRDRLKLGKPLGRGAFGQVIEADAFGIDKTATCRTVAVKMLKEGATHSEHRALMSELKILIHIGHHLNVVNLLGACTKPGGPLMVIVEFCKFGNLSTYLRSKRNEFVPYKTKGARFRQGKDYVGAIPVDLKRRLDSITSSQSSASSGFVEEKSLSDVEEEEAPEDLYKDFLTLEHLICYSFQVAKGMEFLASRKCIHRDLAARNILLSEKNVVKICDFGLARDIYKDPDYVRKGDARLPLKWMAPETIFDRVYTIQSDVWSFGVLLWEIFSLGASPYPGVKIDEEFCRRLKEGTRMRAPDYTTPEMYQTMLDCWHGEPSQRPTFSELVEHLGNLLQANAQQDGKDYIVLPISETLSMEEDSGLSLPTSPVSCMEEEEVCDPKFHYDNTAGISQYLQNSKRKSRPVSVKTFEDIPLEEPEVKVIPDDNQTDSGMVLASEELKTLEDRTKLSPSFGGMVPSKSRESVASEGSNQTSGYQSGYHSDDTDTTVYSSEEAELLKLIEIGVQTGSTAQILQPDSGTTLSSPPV

hGSK3b = molecular target: T3, hGSK3b (Homo sapiens, UniProt P49841); test: Cerep LANCE kinase assay hGSK3b (S1 assay 34); format: biochemical
T3 construct: purchased Cerep (LANCE kinase assay platform, contract assay)
T3 sequence (P49841 whole entry): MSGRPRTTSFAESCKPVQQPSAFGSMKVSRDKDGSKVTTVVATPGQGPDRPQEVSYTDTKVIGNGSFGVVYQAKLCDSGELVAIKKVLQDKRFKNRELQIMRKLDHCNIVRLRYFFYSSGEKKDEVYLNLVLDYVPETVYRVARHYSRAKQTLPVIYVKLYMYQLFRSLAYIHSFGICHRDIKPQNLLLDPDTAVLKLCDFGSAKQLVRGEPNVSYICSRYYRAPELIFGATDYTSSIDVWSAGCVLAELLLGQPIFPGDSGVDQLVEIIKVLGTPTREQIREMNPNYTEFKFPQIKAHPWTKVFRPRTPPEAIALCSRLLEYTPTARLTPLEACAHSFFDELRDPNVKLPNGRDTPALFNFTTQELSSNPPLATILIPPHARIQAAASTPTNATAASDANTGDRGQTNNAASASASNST

hFLT3 = molecular target: T4, hFLT3 (Homo sapiens, UniProt P36888); test: Cerep LANCE kinase assay hFLT3 (S1 assay 35); format: biochemical
T4 construct: purchased Cerep (LANCE kinase assay platform, contract assay)
T4 sequence (P36888 27-993): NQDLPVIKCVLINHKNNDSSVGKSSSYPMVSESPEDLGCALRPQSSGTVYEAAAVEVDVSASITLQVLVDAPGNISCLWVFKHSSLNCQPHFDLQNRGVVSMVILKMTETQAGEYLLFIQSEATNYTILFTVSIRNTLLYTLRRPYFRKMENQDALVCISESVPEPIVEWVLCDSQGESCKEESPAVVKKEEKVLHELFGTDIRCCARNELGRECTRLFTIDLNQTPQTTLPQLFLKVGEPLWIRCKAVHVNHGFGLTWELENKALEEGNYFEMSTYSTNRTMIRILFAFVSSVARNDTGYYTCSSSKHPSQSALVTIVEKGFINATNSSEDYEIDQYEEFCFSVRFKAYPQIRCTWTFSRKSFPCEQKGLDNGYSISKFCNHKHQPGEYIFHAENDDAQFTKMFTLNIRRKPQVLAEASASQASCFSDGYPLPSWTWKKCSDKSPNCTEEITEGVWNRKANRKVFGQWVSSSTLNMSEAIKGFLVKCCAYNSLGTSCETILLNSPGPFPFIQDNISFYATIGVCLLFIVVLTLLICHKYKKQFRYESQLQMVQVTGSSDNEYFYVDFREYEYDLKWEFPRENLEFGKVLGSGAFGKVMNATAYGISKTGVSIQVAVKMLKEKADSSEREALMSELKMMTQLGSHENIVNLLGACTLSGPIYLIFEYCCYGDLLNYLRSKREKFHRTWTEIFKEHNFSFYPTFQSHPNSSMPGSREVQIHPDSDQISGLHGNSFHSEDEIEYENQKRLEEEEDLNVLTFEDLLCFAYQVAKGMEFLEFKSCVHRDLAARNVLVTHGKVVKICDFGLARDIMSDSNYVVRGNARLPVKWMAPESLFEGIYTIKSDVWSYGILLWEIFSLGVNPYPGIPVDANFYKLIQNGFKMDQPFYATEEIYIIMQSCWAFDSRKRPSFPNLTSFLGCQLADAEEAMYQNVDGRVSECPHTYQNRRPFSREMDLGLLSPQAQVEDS

SW480 = test: cells; format: cell-based; details: assay number 24; for IC50: basal, read-out: Basal_Viability ATP SW480 summarized IC50
HT-29 = test: cells; format: cell-based; details: assay number 28; for IC50: basal, read-out: Basal_Viability ATP HT-29 summarized IC50
RKO = test: cells; format: cell-based; details: assay number 29; for IC50: basal, read-out: Basal_Viability ATP RKO summarized IC50
SNU-C1 = test: cells; format: cell-based; details: assay number 30; basal; read-out: Basal_Viability ATP SNU-C1 summarized IC50
hJAK2 = molecular target: T5, hJAK2 (Homo sapiens, UniProt O60674); test: Cerep LANCE kinase assay hJAK2 (S1 assay 33); format: biochemical
T5 construct: purchased Cerep (LANCE kinase assay platform, contract assay)
T5 sequence (O60674 whole entry): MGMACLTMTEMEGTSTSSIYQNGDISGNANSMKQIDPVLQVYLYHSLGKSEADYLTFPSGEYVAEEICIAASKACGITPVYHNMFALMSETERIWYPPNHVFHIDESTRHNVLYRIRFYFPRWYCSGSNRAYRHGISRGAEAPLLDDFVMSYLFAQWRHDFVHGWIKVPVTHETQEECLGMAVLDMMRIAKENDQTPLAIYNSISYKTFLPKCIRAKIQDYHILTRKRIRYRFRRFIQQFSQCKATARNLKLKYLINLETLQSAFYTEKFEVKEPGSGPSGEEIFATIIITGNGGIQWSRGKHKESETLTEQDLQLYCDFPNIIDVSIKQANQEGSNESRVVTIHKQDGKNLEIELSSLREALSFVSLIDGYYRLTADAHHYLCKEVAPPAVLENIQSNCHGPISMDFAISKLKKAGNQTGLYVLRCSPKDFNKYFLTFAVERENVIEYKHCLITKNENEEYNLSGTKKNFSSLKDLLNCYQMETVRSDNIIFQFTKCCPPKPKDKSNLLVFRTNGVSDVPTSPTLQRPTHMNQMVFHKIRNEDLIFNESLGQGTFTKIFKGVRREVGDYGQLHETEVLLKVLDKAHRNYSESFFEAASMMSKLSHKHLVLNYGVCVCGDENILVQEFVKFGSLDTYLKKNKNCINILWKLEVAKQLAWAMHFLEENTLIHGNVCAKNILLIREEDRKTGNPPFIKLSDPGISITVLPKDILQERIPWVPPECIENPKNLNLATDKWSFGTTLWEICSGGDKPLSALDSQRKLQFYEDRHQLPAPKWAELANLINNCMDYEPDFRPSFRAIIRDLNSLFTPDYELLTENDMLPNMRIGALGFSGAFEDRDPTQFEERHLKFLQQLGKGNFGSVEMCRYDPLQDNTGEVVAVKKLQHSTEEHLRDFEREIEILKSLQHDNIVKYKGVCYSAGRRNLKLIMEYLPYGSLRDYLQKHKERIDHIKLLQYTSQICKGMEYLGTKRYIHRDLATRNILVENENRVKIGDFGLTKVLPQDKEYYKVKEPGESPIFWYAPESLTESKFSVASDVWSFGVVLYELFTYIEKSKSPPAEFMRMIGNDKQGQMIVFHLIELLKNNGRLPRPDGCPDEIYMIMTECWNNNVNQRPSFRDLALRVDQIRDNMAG

[4] = test system: ECFC/ADSC co-culture cell nuclei number; details: for IC50: read-out: VEGF_ADSC\ECFC Angio Hoechst NucArea summarized IC50
[5] = kinase assay, read-out: p70S6K1
[6] = read-out: VEGF_ADSC\ECFC Angio CD31 TubeArea summarized IC50
[7] = assay number 14, 2N, read-out: Hela CellCycMod PI 2N summarized IC50
[8] = assay number 16, 4N, read-out: Hela CellCycMod PI 4N summarized IC50
[9] = assay number 17, MI, read-out: Hela CellCycMod PI MI summarized IC50
[10] = assay number 18, cell number, read-out: Hela CellCycMod PI Cell Number summarized IC50
[11] = assay number 23, basal, read-out: Basal_Viability ATP DLD-1 summarized IC50
[12] = assay number 25, basal, read-out: Basal_Viability ATP HCT116 summarized IC50
[13] = assay number 27, basal, read-out: Basal_Viability ATP Colo 320 summarized IC50
[14] = assay number 31, read-out: hp70S6K1 LANCE summarized IC50
[15] = assay number 33, read-out: hJAK2 LANCE summarized IC50
[16] = assay number 34, read-out: hGSK3b LANCE summarized IC50
[17] = assay number 35, read-out: hFLT3 LANCE summarized IC50

Compound | IC50 (hp70S6K1 (RPS6KB1); [5]) [nM] | IC50 (hKDR) [nM] | IC50 (hGSK3b; kinase assay, read-out: GSK3b) [nM] | IC50 (hFLT3; kinase assay, read-out: FLT3) [nM] | IC50 [1, 6] [nM] | IC50 (HeLa cells; [7]) [nM] | IC50 (HeLa cells; [8]) [nM] | IC50 (HeLa cells; [9]) [nM] | IC50 (HeLa cells; [10]) [nM] | IC50 (DLD-1; [11]) [nM] | IC50 (SW480) [nM] | IC50 (HCT116; [12]) [nM] | IC50 (Colo320; [13]) [nM] | IC50 (HT-29) [nM] | IC50 (RKO) [nM] | IC50 (SNU-C1) [nM] | IC50 (hp70S6K1 (RPS6KB1); [14]) [nM] | IC50 (hJAK2; [15]) [nM] | IC50 (hGSK3b; [16]) [nM] | IC50 (hFLT3; [17]) [nM] | further results
O=C(Nc1ccc([N+](=O)[O-])cc1Cl)c1cc(Cl)ccc1O [Niclosamide] | > 20000 | > 20000 | > 20000 | > 20000 |  |  |  |  |  |  |  |  |  |  |  |  |  |  |  |  | IC50 ([1]; Homo sapiens, read-out: Anti-Angiogenesis): 112 nM; EC50 [2]: 1570 nM; EC50 (INS-1E cells): > 10000 nM; EC50 (NCI-H716 cells): > 10000 nM; EC50 (HeLa cells; Homo sapiens, HeLa, read-out: CellCycle G2/M): > 10000 nM; IC50 (DLD-1; Homo sapiens, DLD-1, read-out: Basal_Viability ATP DLD-1): 3.49 nM; IC50 (HCT116; Homo sapiens, HCT-116, read-out: Basal_Viability ATP HCT116): 1.44 nM; IC50 ([3]; Homo sapiens, HCT-116, read-out: GSK3b inh pretreated_Viability ATP HCT116): 2.95 nM; IC50 (Colo320; Homo sapiens, COLO 320, read-out: Basal_Viability ATP Colo 320): 8.26 nM
Oc1c(Cl)cc(Cl)cc1Sc1cc(Cl)cc(Cl)c1O [NCGC00018163-10] |  |  |  |  | 1790 | > 10000 | > 10000 | > 10000 | > 10000 | 1 | 1 | 1 | 15 | 996 | 1 | 8.67 | > 20000 | > 20000 | 6570 | > 20000 | IC50 (HeLa cells; assay number 15, S phase, read-out: Hela CellCycMod PI S Phase summarized IC50): > 10000 nM; IC50 ([3]; assay number 26, GSK3b inhibitor pretreated, read-out: GSK3b inh pretreated_Viability ATP HCT116 summarized IC50): 1 nM; IC50 [4]: > 10000 nM
CC(C)(C)C1CCC(CC2=C(O)c3ccccc3C(=O)C2=O)CC1 (stereo not drawn) [NCGC00253624-01] |  |  |  |  |  |  |  |  |  |  |  |  |  |  |  |  |  |  |  |  | VEGF_ADSC\ECFC Angio CD31 TubeArea IC50/EC50 [1]: 1962.5 nM; Hela CellCycMod PI 2N IC50/EC50 (HeLa cells; assay number 14, 2N): > 10000 nM; Hela CellCycMod PI S Phase IC50/EC50 (HeLa cells; assay number 15, S phase): > 10000 nM; Hela CellCycMod PI 4N IC50/EC50 (HeLa cells; assay number 16, 4N): > 10000 nM; Hela CellCycMod PI MI IC50/EC50 (HeLa cells; assay number 17, MI): > 10000 nM; Hela CellCycMod PI Cell Number IC50/EC50 (HeLa cells; assay number 18, cell number): > 10000 nM; Basal_Viability ATP DLD-1 IC50/EC50 (DLD-1; assay number 23): 218.5 nM; Basal_Viability ATP SW480 IC50/EC50 (SW480): 204.7 nM; Basal_Viability ATP HCT116 IC50/EC50 (HCT116; assay number 25, basal): 226.8 nM; Basal_Viability ATP Colo 320 IC50/EC50 (Colo320; assay number 27): 254.8 nM; Basal_Viability ATP HT-29 IC50/EC50 (HT-29): 3390.6 nM; Basal_Viability ATP RKO IC50/EC50 (RKO): 132.9 nM; hp70S6K1 LANCE IC50/EC50 (hp70S6K1 (RPS6KB1); assay number 31): > 20000 nM; hKDR LANCE IC50/EC50 (hKDR; assay number 32): > 20000 nM; hJAK2 LANCE IC50/EC50 (hJAK2; assay number 33): > 20000 nM; hGSK3b LANCE IC50/EC50 (hGSK3b; assay number 34): > 20000 nM; hFLT3 LANCE IC50/EC50 (hFLT3; assay number 35): > 20000 nM; VEGF_ADSC\ECFC Angio Hoechst NucArea IC50/EC50 [4]: > 10000 nM
Oc1c(I)cc(I)c2cccnc12 [NCGC00018098-07] |  |  |  |  | 2390 | > 10000 | > 10000 | > 10000 | > 10000 | 17.8 | 3.6 | 41 | 21.3 | 705 | 22.7 | 38.7 | > 20000 | > 20000 | > 20000 | > 20000 | IC50 (hKDR; assay number 32, read-out: hKDR LANCE summarized IC50): > 20000 nM; IC50 [4]: > 10000 nM
COc1cc2c(c(OC)c1OC)-c1ccc(OC)c(=O)cc1[C@@H](NC(C)=O)CC2 [colchicine] |  | > 20000 |  |  |  |  |  |  |  |  |  |  |  |  |  |  |  |  |  |  | IC50 (hp70S6K1 (RPS6KB1)): > 20000 nM; IC50 (hJAK2): > 20000 nM; IC50 (hGSK3b): > 20000 nM; IC50 (hFLT3): > 20000 nM
O=C(CCCCCCC(=O)Nc1ccccc1)NO [vorinostat] | > 20000 | > 20000 | > 20000 | > 20000 |  |  |  |  |  |  |  |  |  |  |  |  |  |  |  |  | IC50 (hJAK2; kinase assay, read-out: JAK2): > 20000 nM
